In ChEMBL document CHEMBL1201862, “PubChem BioAssay data set” (2004):
Calls of active or inactive are those of the source.

Columns and labels:
[1] = tested on: Escherichia coli; experiment: microbe, parasite or virus in culture
[2] = biological target: T1, Low molecular weight phosphotyrosine protein phosphatase (Homo sapiens, UniProt P24666); type: functional; conditions: read-out: IC50_Mean;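 note: Dose-response confirmation assay measuring inhibition of LMPTP enzyme activity by fluorescence intensity read-out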
T1 sequence (P24666 whole entry): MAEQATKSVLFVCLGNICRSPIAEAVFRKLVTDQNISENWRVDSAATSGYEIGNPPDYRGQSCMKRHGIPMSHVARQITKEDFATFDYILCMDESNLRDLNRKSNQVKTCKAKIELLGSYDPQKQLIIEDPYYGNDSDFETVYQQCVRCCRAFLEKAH

[3] = biological target: T2, Cytochrome P450 1A2 (Homo sapiens, UniProt P05177);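 note: PubChem cytochrome P450 panel assay, CYP1A2 panel member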
T2 sequence (P05177 whole entry): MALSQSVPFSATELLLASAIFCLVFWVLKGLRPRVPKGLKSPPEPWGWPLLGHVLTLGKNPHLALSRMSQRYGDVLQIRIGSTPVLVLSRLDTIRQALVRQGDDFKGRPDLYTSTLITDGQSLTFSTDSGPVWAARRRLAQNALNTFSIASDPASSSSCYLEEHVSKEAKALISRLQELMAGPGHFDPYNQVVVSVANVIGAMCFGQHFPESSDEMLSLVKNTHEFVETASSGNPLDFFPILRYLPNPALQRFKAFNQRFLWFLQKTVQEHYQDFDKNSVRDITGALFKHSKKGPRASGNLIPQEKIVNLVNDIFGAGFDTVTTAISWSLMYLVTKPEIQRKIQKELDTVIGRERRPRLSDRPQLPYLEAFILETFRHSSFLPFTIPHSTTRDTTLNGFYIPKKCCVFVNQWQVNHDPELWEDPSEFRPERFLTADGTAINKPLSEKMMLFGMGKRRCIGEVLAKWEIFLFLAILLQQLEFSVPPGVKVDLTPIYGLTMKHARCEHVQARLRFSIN

[4] = biological target: Cytochrome P450 3A4 (Homo sapiens, UniProt P08684);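 note: CYP3A4 tested as one member of a cytochrome P450 panel screen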
[5] = biological target: T3, Streptokinase A (Streptococcus pyogenes serotype M1, UniProt P10520); experiment: S. pyogenes streptokinase expression inhibitors, potency, dose response, plasminogen activation absorbance, OD405 (AID 1914); type: functional, Streptococcus pyogenes M1 GAS;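 note: secreted streptokinase activity via plasminogen activation per viability signal from cell pellet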
T3 sequence (P10520 whole entry): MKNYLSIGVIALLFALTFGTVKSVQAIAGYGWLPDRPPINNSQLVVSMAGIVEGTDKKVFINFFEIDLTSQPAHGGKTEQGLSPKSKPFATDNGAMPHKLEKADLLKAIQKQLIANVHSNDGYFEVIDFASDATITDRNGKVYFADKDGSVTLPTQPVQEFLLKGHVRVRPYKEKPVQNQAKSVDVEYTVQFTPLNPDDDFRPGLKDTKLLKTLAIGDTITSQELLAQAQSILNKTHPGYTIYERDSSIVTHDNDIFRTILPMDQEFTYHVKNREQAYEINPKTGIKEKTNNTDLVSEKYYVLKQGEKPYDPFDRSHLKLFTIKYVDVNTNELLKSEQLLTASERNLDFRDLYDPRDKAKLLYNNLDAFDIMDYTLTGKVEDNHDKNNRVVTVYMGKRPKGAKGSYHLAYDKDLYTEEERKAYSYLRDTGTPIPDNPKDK

[6] = cytotoxicity in MIN6 insulinoma cells, dose response, cytotoxicity control, cell-based, mouse insulinoma (AID 2122); type: functional;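 note: confirmatory high-throughput counterscreen run to flag cytotoxic compounds; mouse MIN-6 beta cells carrying an insulin promoter eGFP reporter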
[7] = tested on: Vero; experiment: cells; type: functional; conditions: Chlorocebus sabaeus
[8] = tested on: Streptococcus; experiment: Group A Streptococcus viability loss, dose response, counter-screen for streptokinase expression inhibitor project, luminescence, BacTiterGlo (AID 1915); type: functional, organism-based;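 note: potency for reduction of bacterial viability or growth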
[9] = HepG2 cell cytotoxicity, dose response, cytotoxicity control for Shn3 inhibitor project, CellTiter-Glo, cherry-picked (AID 624134); type: functional, cell-based
[10] = control 3'UTR Renilla luciferase suppression, dose response, counter-screen for Shn3 inhibitor project, cell-based, Clone20-Shn3RL, cherry-picked (AID 624133); type: functional
[11] = tested on: INS1; experiment: beta cell apoptosis inhibitors, cytokine rescue, dose response, luminescence, retest (AID 449756); type: functional, cell-based; conditions: Rattus norvegicus;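 note: cell death triggered by IL-1 beta plus TNF-alpha plus IFN-gamma mixture; protective hits raise ATP signal compared with cytokine alone wells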
[12] = tested on: Streptococcus sp. 'group A'; experiment: growth inhibition of control SK(-) GAS strain, dose response, counter-screen for streptokinase expression inhibitor project, luminescence, kanamycin, BacTiterGlo, confirmation (AID 1900); type: functional, organism-based
[13] = Shn3 3'UTR reporter inhibitors, dose response, cell-based, Clone20 osteoblasts, firefly luciferase, cherry-picked (AID 624132); type: functional;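 note: firefly luciferase luminescence from reporter carrying the Shn3 3'UTR in osteoblasts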
[14] = insulin promoter down-regulators in MIN6 cells, imaging, high-content screening, mouse beta cells (AID 1628); type: functional
[15] = tested on: Vero; experiment: cells; type: functional, cell-based; conditions: Chlorocebus sabaeus
[16] = HEp-2 cell cytotoxicity, dose response, cytotoxicity control for RSV inhibitor project, HTS (AID 2410); type: functional; conditions: human respiratory syncytial virus
[17] = cells
[18] = biological target: Cytochrome P450 2D6 (Homo sapiens, UniProt P10635);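 note: CYP2D6 member of a cytochrome P450 panel assay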
[19] = biological target: T4, Phosphomannomutase 2 (Homo sapiens, UniProt O15305); experiment: Counter screen SAR assay for PMM2 inhibitors via a fluorescence intensity assay. [Related pubchem assays (depositor defined):AID1545, AID1574]
T4 sequence (O15305 whole entry): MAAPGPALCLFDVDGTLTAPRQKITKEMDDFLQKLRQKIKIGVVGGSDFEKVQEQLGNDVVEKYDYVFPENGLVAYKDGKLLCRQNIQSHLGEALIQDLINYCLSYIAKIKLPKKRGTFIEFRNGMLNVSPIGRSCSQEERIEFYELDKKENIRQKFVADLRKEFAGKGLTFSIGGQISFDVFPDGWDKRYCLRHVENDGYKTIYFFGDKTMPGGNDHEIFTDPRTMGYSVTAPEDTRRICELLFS

[20] = biological target: T5, Phosphoethanolamine/phosphocholine phosphatase (Homo sapiens, UniProt Q8TCT1); experiment: SAR assay for compounds that inhibit PHOSPHO1. [Related pubchem assays (depositor defined):AID1545, AID1565, AID1574]
T5 sequence (Q8TCT1 whole entry): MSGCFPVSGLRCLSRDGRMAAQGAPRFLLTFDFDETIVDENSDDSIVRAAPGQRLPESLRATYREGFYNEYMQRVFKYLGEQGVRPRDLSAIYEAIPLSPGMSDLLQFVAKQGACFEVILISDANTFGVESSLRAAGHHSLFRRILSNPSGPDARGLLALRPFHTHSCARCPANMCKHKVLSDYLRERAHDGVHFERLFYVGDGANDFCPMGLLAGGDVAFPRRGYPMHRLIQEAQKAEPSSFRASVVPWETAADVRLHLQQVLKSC

[21] = biological target: T6, Mannose-6-phosphate isomerase (Homo sapiens, UniProt P34949); experiment: PMI enzyme inhibitors, confirmation, biochemical, fluorescence intensity (AID 1535)
T6 sequence (P34949 whole entry): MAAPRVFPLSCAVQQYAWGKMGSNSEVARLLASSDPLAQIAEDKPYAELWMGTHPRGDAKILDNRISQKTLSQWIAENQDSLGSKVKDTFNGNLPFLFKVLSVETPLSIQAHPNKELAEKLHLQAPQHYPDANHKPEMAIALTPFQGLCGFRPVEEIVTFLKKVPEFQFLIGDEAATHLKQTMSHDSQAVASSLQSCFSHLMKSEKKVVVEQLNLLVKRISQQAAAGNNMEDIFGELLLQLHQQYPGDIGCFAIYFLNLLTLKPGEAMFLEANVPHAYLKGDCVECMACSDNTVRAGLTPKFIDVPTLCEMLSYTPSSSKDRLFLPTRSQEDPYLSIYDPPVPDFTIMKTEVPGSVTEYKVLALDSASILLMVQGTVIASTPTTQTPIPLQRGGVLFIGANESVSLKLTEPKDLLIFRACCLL

[22] = biological target: T7, CAAX prenyl protease 2 (Homo sapiens, UniProt Q9Y256); experiment: human Rce1 protease inhibitors, dose response, biochemical, yeast membranes, quenched-peptide fluorescence, cherry-pick (AID 588849)
T7 sequence (Q9Y256 whole entry): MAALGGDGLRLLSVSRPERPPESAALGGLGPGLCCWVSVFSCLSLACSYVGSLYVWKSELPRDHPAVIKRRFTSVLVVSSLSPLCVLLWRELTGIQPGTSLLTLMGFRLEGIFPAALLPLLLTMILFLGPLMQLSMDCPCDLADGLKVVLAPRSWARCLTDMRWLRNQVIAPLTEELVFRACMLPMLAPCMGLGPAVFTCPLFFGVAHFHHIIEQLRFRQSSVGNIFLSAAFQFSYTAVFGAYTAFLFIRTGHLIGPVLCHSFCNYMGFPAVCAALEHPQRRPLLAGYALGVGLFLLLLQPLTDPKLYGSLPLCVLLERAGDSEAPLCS

[23] = tested on: H4; experiment: Luminescence Cell-Based Dose Response HTS to Identify Activators of 5'UTR Stem-Loop Driven Prion Protein mRNA Translation in H4 Neuroglioblastoma Cells. [Related pubchem assays: 1829 (Project Summary), 1814 (Primary HTS)]; type: functional; conditions: Homo sapiens
[24] = Luminescence Cell-Based Dose Confirmation HTS to Identify Activators of 5'UTR Stem-Loop Driven Alpha-Synuclein mRNA Translation in H4 Neuroglioblastoma Cells. [Related pubchem assays: 1829 (Project Summary), 1814 (Primary HTS)]; type: functional
[25] = Luminescence Cell-Based Dose Response HTS to Identify Activators of Luciferase Translation or Activity in H4 […] Cells. [Related pubchem assays: 1829 (Project Summary), 1814 (Primary HTS)]; type: functional

Cytochrome P450 3A4, sequence (P08684 whole entry): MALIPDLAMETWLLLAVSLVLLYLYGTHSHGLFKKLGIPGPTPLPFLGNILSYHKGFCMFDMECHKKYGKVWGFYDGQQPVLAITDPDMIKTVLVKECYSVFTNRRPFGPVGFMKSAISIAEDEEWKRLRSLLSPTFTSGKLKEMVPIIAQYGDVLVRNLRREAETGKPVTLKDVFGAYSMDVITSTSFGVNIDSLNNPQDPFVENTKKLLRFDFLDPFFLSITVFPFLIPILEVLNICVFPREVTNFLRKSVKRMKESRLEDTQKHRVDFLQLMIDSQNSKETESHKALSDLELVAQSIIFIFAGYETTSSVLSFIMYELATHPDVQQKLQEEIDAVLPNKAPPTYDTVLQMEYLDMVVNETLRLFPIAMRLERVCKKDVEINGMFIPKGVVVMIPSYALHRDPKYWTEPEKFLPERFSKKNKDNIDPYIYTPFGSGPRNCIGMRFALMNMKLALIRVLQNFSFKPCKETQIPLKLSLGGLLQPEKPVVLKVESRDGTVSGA
Cytochrome P450 2D6, sequence (P10635 whole entry): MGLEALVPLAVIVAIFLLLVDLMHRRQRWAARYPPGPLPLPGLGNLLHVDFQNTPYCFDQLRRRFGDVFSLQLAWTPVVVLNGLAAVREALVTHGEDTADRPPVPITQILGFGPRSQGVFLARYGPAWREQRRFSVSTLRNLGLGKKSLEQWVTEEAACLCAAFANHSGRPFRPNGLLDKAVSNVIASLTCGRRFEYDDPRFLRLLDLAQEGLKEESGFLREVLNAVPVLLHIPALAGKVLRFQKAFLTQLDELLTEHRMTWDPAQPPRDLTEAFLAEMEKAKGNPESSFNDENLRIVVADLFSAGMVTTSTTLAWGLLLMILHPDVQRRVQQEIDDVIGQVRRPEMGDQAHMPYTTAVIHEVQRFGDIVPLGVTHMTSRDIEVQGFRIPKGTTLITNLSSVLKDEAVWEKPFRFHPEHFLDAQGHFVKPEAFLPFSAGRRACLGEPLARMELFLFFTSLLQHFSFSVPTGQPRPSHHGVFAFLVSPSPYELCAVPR

CCn1cc(C(=O)O)c(=O)c2cc(F)c(N3CCN(C(=S)NC(=O)c4ccc(OC)cc4)CC3)cc21
AC50 [1]: 8.97 µM (active) | IC50 [2]: 7.26 µM (active)

O=C(c1cnccn1)N1CCC2(CC1)CCN(C(c1ccccc1)c1ccccc1)CC2
AC50 [3]: 10 µM (inconclusive) | AC50 [4]: inconclusive

Cn1cccc1C(=O)N1CCC2(CCN(Cc3nccs3)CC2)CC1
AC50 [4]: inconclusive

Cc1ccn(C(=O)c2ccc(NC(=O)C3CC3)cc2)n1
AC50 [1]: 22.3 µM (active)

CC1=NN(c2nc3ccccc3[nH]2)C(=O)C1Cc1ccccc1 (centres undefined)
EC50 [5]: > 150 µM (not active) | IC50 [6]: 1.43 µM (active) | CC50 [7]: 2.92 µM (active) | EC50 [8]: > 150 µM (not active) | AC50 [9]: > 70 µM (inactive) | AC50 [10]: 2.6 µM (active) | AC50 [11]: 1.43 µM (active) | EC50 [12]: 1.17 µM (active) | AC50 [13]: 4.11 µM (active) | IC50 [14]: 1.53 µM (active)

Cc1cccc(NC(=O)CSc2nc3ccccc3nc2N2CCCCC2)c1
IC50 [15]: 9.16 µM (active) | CC50 [7]: > 25 µM (active) | CC50 [16]: 10.3 µM (active) | IC50 [17]: 9 µM (active)

O=C(Oc1ccccc1)N1CCC2(CCN(Cc3ccccc3)CC2)CC1
AC50 [18]: 39.8 µM (inconclusive) | AC50 [4]: inconclusive

CC(=O)/C(C#N)=C1\NC(=O)C(Cc2ccccc2)S1 (centres undefined)
IC50 [15]: 9.17 µM (active) | CC50 [16]: 14.4 µM (active) | IC50 [17]: 5.09 µM (active)

Cc1cc(C(=O)CSc2nc3cc(Cl)ccc3[nH]2)c(C)n1CC1CCCO1 (centres undefined)
IC50 [6]: 2.99 µM (active) | IC50 [14]: 2.74 µM (active)

O=c1c2ccccc2sn1-c1ccc(S(=O)(=O)N2CCOCC2)cc1
IC50 [19]: > 100 µM (inactive) | IC50 [20]: 0.545 µM (active) | IC50 [21]: > 50 µM (inactive)

[N-]=[N+]=Nc1cc([N+](=O)[O-])cc2sn(-c3ccccc3)c(=O)c12
IC50 [19]: 96.4 µM (active) | IC50 [20]: 0.498 µM (active) | IC50 [21]: > 50 µM (inactive)

COC(C/C=C/[C@@H](O)[C@H](C)OCc1ccccc1)OC
AC50 [22]: 16.5 µM (active)

NS(=O)(=O)c1ccc(N/N=C/c2cn(-c3ccccc3)nc2-c2ccccc2)c([N+](=O)[O-])c1
EC50 [23]: > 120 µM (not active) | EC50 [24]: > 120 µM (not active) | IC50 [6]: 3.46 µM (active) | EC50 [25]: > 60 µM (not active) | IC50 [14]: 1.05 µM (active)
